In brackets after ≈: the same amount, converted by molar mass. Several values for one entry are separate records, joined by “and”; a condition that tells them apart may be missing. Equal entries are not always repeated. One block for each compound: values may come before it.
Experiments:
Experiment in all cases: ≥ marks a high value that may be exact or a test limit, other limits are often not marked, values filed in µg/mL are converted to µM
[1] = test system: Bacillus subtilis CCT 2471
[2] = test system: Candida albicans
[3] = test system: Enterobacter cloacae ATCC 23355
[4] = test system: Escherichia coli CCT 1371
[5] = test system: Klebsiella pneumoniae ATCC 13883
[6] = test system: Pseudomonas aeruginosa ATCC 27853
[7] = test system: Staphylococcus aureus ATCC 6535
[8] = test system: Staphylococcus saprophyticus
[9] = test system: Candida albicans TIMM 0144
[10] = test system: Staphylococcus aureus JCM 2151
[11] = test system: Trichophyton mentagrophytes TIMM 1189
[12] = test system: Escherichia coli ATCC 25922
[13] = test system: Yersinia enterocolitica ATCC 23715
[14] = test system: Fusarium graminearum
[15] = test system: Bifidobacterium longum subsp. infantis
[16] = test system: Escherichia coli
[17] = test system: Staphylococcus aureus
[18] = test system: Bacillus cereus
[19] = test system: Leuconostoc lactis
[20] = test system: Listeria innocua
[21] = test system: Micrococcus luteus
[22] = test system: Pasteurella multocida
[23] = test system: Staphylococcus epidermidis
[24] = test system: Streptococcus uberis
[25] = test system: Acinetobacter baumannii 97830
[26] = test system: Acinetobacter baumannii 9931
[27] = test system: Acinetobacter baumannii ATCC 19606
[28] = test system: Bacillus subtilis ATCC 23857
[29] = test system: Escherichia coli 780
[30] = test system: Escherichia coli 804
[31] = test system: Klebsiella pneumoniae ATCC 700603
[32] = test system: Pseudomonas aeruginosa 50
[33] = test system: Pseudomonas aeruginosa 73
[34] = test system: Pseudomonas aeruginosa ATCC 9027
[35] = test system: Staphylococcus aureus 113
[36] = test system: Staphylococcus aureus 75
[37] = test system: Staphylococcus aureus ATCC 29213
[38] = test system: Staphylococcus epidermidis ATCC 12228

MIC [1]: 28.4 µM (≈ 30 µg/mL)
MIC [2]: 2.37 µM (≈ 2.5 µg/mL)
MIC [3]: 14.2 µM (≈ 15 µg/mL)
MIC [4]: 14.2 µM (≈ 15 µg/mL)
MIC [5]: 14.2 µM (≈ 15 µg/mL)
MIC [6]: 14.2 µM (≈ 15 µg/mL)
MIC [7]: 14.2 µM (≈ 15 µg/mL)
MIC [8]: 9.48 µM (≈ 9.99 µg/mL)
SMILES: CC[C@H](C)[C@H](NC(=O)[C@H](CO)NC(=O)[C@@H](NC(=O)[C@H](CCCCN)NC(=O)[C@H](Cc1ccccc1)NC(=O)[C@@H]1CCCN1C(=O)[C@@H](N)[C@@H](C)O)[C@@H](C)CC)C(=O)N[C@@H](Cc1cnc[nH]1)C(=O)N[C@@H](CC(C)C)C(N)=O [TPFKISIHL]

MIC [9]: ≥ 52 µM
MIC [10]: 26 µM and 12.5 µM
MIC [11]: 6.24 µM (≈ 6.26 µg/mL)
SMILES: CC(=O)N[C@@H](CCCN=C(N)N)C(=O)N[C@@H](CCCN=C(N)N)C(=O)N[C@@H](Cc1c[nH]c2ccccc12)C(=O)N[C@@H](Cc1c[nH]c2ccccc12)C(=O)N[C@@H](CS)C(=O)N[C@@H](CCCN=C(N)N)C(N)=O [RRWWCR]

MIC [12]: 1.91 µM (≈ 3.13 µg/mL)
MIC [13]: 3.83 µM (≈ 6.25 µg/mL)
SMILES: CC[C@H](C)[C@H](NC(=O)[C@@H]1CCCN1C(=O)[C@H](CC(N)=O)NC(=O)[C@H](Cc1cnc[nH]1)NC(=O)[C@@H](NC(=O)[C@@H]1CCCN1C(=O)[C@H](C)NC(=O)[C@H](CC(C)C)NC(=O)[C@@H]1CCCN1C(=O)[C@H](CCC(N)=O)NC(=O)[C@@H](NC(=O)[C@@H](NC(=O)[C@@H]1CCCN1C(=O)[C@@H](N)Cc1ccc(O)cc1)C(C)C)[C@@H](C)O)C(C)C)C(=O)N[C@@H](CO)C(=O)O [YPVTQPLAPVHNPIS]

MIC [14]: ≥ 70 µM
SMILES: NC(=O)C[C@H](NC(=O)CNC(=O)[C@H](Cc1ccccc1)NC(=O)[C@@H](N)Cc1c[nH]c2ccccc12)C(=O)N[C@@H](CS)C(=O)NCC(=O)N[C@@H](CC(N)=O)C(=O)N1CCC[C@H]1C(=O)N[C@@H](CCCN=C(N)N)C(=O)N[C@@H](Cc1cnc[nH]1)C(=O)N[C@@H](CS)C(=O)NCC(=O)O [WFGNCGNPRHCG]

MIC [15]: ≥ 2090 µM
MIC [16]: 2090 µM (≈ 3000 µg/mL)
MIC [17]: 2090 µM (≈ 3000 µg/mL)
SMILES: NCCCC[C@H](NC(=O)CNC(=O)[C@H](Cc1ccccc1)NC(=O)[C@H](CCCCN)NC(=O)[C@@H](N)CCC(=O)O)C(=O)N[C@@H](CC(=O)O)C(=O)N[C@@H](CCCCN)C(=O)N[C@@H](CO)C(=O)N1CCC[C@H]1C(=O)N[C@@H](CCCCN)C(=O)N[C@@H](Cc1ccccc1)C(=O)N[C@@H](CCC(N)=O)C(=O)O [EKFGKDKSPKFQ]

MIC [18]: ≥ 46.3 µM
MIC [16]: > 46.3 µM
MIC [19]: 23.1 µM (≈ 50 µg/mL)
MIC [20]: ≥ 46.3 µM
MIC [21]: ≥ 46.3 µM
MIC [22]: ≥ 46.3 µM
MIC [17]: > 46.3 µM
MIC [23]: ≥ 46.3 µM
MIC [24]: ≥ 46.3 µM
SMILES: CC[C@H](C)[C@H](NC(=O)[C@H](CO)NC(=O)CNC(=O)[C@@H](NC(=O)[C@H](CC(C)C)NC(=O)CN)[C@@H](C)CC)C(=O)NCC(=O)N[C@@H](CCCCN)C(=O)N[C@@H](C)C(=O)N[C@@H](CC(C)C)C(=O)NCC(=O)NCC(=O)N[C@@H](CC(C)C)C(=O)N[C@@H](CC(C)C)C(=O)N[C@H](C(=O)N[C@@H](CC(=O)O)C(=O)N[C@H](C(=O)N[C@@H](CC(C)C)C(=O)N[C@@H](CCCCN)C(=O)N1CCC[C@H]1C(=O)N[C@@H](CCCCN)C(=O)N[C@@H](CC(C)C)C(=O)O)C(C)C)C(C)C [GLIGSIGKALGGLLVDVLKPKL]

MIC [25]: 16 µM (≈ 22 µg/mL)
MIC [26]: 8 µM (≈ 11 µg/mL)
MIC [27]: 32 µM (≈ 44 µg/mL)
MIC [28]: 4 µM (≈ 5.5 µg/mL)
MIC [29]: 8 µM (≈ 11 µg/mL)
MIC [30]: 16 µM (≈ 22 µg/mL)
MIC [31]: 32 µM (≈ 44 µg/mL)
MIC [32]: ≥ 32 µM
MIC [33]: ≥ 32 µM
MIC [6]: 64 µM (≈ 88 µg/mL)
MIC [34]: 64 µM (≈ 88 µg/mL)
MIC [35]: 8 µM (≈ 11 µg/mL)
MIC [36]: 8 µM (≈ 11 µg/mL)
MIC [37]: 8 µM (≈ 11 µg/mL)
MIC [38]: 8 µM (≈ 11 µg/mL)
SMILES: NCC(=O)N[C@@H](Cc1c[nH]c2ccccc12)C(=O)N[C@@H](CCCN=C(N)N)C(=O)N[C@@H](Cc1c[nH]c2ccccc12)C(=O)N[C@@H](Cc1c[nH]c2ccccc12)C(=O)N[C@@H](Cc1c[nH]c2ccccc12)C(=O)N[C@@H](CCCN=C(N)N)C(=O)N[C@@H](Cc1c[nH]c2ccccc12)C(=O)NCC(N)=O [GWRWWWRWG]

Source: DBAASP
